pEC50, pKi: −log10 of the molar value.
Key:
[1] = biological target: T1, Histamine H2 receptor (Homo sapiens, UniProt P25021); test: Intrinsic activity at human histamine H2 receptor expressed in sf9 cell membrane co-expressing Gsalphas at 10 uM incubated for 90 mins by [35S]GTPgammaS binding assay relative to histamine; assay type: functional
[2] = biological target: T2, Histamine H3 receptor (Homo sapiens, UniProt Q9Y5N1); test: Intrinsic activity at human histamine H3 receptor expressed in sf9 cell membrane co-expressing mammalian Galphai2 and Gbeta1gamma2 at 10 uM incubated for 90 mins by [35S]GTPgammaS binding assay relative to histamine; assay type: functional
T2 sequence (Q9Y5N1 whole entry): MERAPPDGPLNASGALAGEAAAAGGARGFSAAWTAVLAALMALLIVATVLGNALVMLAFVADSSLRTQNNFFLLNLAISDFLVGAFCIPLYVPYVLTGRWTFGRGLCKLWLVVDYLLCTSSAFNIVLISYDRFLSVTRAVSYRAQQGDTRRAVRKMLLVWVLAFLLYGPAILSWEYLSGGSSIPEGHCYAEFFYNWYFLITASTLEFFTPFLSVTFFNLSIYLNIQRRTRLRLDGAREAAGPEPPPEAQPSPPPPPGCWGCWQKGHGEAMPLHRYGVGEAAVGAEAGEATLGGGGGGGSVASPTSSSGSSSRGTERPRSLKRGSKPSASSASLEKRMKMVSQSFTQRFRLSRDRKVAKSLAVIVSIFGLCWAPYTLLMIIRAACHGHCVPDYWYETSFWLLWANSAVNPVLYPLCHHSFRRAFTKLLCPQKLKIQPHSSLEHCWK

[3] = biological target: T2, Histamine H3 receptor; test: Agonist activity at human histamine H3 receptor expressed in sf9 cell membrane co-expressing mammalian Galphai2 and Gbeta1gamma2 incubated for 90 mins by [35S]GTPgammaS binding assay; assay type: functional
[4] = biological target: T3, Histamine H4 receptor (Mus musculus, UniProt Q91ZY2); test: Agonist activity at mouse SF-His6-tagged histamine H4 receptor expressed in HEK293 cells assessed as inhibition of forskolin-stimulated response incubated for 5 hrs by luciferase reporter gene assay; assay type: cell-based
T3 sequence (Q91ZY2 whole entry): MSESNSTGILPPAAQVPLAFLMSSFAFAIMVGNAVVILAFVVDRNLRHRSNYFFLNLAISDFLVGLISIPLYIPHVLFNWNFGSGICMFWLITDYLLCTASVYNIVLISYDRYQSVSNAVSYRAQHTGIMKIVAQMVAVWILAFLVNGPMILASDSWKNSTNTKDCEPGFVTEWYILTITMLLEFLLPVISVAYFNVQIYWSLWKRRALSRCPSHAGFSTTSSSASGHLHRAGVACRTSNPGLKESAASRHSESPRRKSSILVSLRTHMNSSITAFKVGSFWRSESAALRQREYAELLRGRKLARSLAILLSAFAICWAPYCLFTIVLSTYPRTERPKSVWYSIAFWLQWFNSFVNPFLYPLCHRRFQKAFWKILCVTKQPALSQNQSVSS

[5] = biological target: T4, Histamine H4 receptor (Homo sapiens, UniProt Q9H3N8); test: Displacement of [3H]UR-PI294 from human histamine H4 receptor expressed in sf9 cell membrane co-expressing mammalian Galphai2 and Gbeta1gamma2 incubated for 60 mins by liquid scintillation counting method
T4 sequence (Q9H3N8 whole entry): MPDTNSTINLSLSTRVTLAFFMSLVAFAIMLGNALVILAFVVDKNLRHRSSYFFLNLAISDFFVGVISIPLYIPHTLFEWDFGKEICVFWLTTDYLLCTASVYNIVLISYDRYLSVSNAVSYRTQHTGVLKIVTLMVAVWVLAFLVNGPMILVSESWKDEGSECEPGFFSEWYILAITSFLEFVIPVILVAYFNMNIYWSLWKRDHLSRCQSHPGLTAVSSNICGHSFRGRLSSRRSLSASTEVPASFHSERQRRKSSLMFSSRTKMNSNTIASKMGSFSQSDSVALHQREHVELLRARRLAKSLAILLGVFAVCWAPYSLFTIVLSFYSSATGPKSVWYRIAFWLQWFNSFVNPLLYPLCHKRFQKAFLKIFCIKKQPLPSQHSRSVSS

[6] = biological target: Histamine H1 receptor (Homo sapiens, UniProt P35367); test: Displacement of [3H]mepyramine from human histamine H1 receptor expressed in sf9 cell membrane co-expressing RGS4 incubated for 60 mins by liquid scintillation counting method
Chain of Histamine H1 receptor (P35367 whole entry): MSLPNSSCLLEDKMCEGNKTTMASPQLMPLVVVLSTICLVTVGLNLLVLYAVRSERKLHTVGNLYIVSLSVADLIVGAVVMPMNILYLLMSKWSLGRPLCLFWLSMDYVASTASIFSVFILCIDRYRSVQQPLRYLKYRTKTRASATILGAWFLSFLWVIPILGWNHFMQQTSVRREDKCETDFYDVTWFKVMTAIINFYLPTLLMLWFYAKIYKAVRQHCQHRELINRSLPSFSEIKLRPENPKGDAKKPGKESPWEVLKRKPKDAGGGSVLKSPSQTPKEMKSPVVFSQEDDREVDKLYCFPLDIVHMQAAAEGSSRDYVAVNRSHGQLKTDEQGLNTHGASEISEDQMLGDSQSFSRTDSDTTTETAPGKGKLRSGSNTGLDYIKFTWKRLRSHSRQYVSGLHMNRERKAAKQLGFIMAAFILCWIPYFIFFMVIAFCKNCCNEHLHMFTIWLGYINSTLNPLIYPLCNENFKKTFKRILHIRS

[7] = biological target: T4, Histamine H4 receptor; test: Agonist activity at human SF-His6-tagged histamine H4 receptor expressed in HEK293 cells assessed as inhibition of forskolin-stimulated response incubated for 5 hrs by luciferase reporter gene assay; assay type: cell-based
[8] = biological target: T2, Histamine H3 receptor; test: Displacement of [3H]N-alpha-methylhistamine from human histamine H3 receptor expressed in sf9 cell membrane co-expressing mammalian Galphai2 and Gbeta1gamma2 incubated for 60 mins by liquid scintillation counting method
[9] = biological target: T4, Histamine H4 receptor; test: Agonist activity at human histamine H4 receptor expressed in sf9 cell membrane co-expressing mammalian Galphai2 and Gbeta1gamma2 incubated for 90 mins by [35S]GTPgammaS binding assay; assay type: functional
[10] = biological target: T1, Histamine H2 receptor; test: Displacement of [3H]tiotidine from human histamine H2 receptor expressed in sf9 cell membrane co-expressing Gsalphas incubated for 60 mins by liquid scintillation counting method
[11] = biological target: T5, Histamine H4 receptor (Mus musculus) (UniProt Q91ZY2); test: Intrinsic activity at mouse SF-His6-tagged histamine H4 receptor expressed in HEK293 cells assessed as inhibition of forskolin-stimulated response incubated for 5 hrs by luciferase reporter gene assay relative to histamine; assay type: cell-based
T5 sequence (whole entry): T3 sequence (Q91ZY2 whole entry)

[12] = biological target: T1, Histamine H2 receptor; test: Antagonist activity at human histamine H2 receptor expressed in sf9 cell membrane co-expressing Gsalphas assessed as inhibition of histamine-induced [35S]GTPgammaS binding incubated for 90 mins; assay type: functional
[13] = biological target: T2, Histamine H3 receptor; test: Antagonist activity at human histamine H3 receptor expressed in sf9 cell membrane co-expressing mammalian Galphai2 and Gbeta1gamma2 assessed as inhibition of histamine-induced [35S]GTPgammaS binding incubated for 90 mins; assay type: functional

T1 sequence (P25021 whole entry): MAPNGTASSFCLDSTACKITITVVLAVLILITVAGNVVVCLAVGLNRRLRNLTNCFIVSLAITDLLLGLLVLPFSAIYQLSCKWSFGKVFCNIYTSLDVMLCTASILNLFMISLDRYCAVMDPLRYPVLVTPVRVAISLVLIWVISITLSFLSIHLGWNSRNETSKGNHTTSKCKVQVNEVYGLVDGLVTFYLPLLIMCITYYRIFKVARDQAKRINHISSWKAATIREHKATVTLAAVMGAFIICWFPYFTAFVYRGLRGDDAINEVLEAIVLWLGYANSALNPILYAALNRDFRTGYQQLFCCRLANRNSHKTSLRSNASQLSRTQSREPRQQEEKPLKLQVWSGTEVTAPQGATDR

With `N#C/N=C(/NCCCCc1c[nH]cn1)NCCSc1ccccc1` as the molecule, how does the Intrinsic activity [1] read?
Its Intrinsic activity is 0.

And the Intrinsic activity [2]?
The Intrinsic activity was -0.52.

And the pEC50 [3]?
The pEC50 was 6.14.

How did the pEC50 [4] turn out when `CN/C(=N\C#N)NC[C@H]1CC[C@H](c2c[nH]cn2)C1` [listing 1 of 2 here] was run?
The pEC50 was 6.27.

And the pKi [5]?
Its pKi is 7.01.

What about the pKi ([6]; sf9) of the same molecule?
Its pKi is less than 5.00.

What about the pEC50 [7] of the same molecule?
Its pEC50 is 7.20.

What about the pKi [8] of the same molecule?
Its pKi is 6.02.

And the pEC50 [3]?
Its pEC50 is 6.00.

And the pEC50 [9]?
Its pEC50 is 7.00.

And the pKi [10]?
The pKi was less than 5.00.

With `N#C/N=C(/NCCSc1ccccc1)NC[C@@H]1CC[C@@H](c2c[nH]cn2)C1` as the molecule, how does the pEC50 [4] read?
Its pEC50 is 6.23.

And the Intrinsic activity [1]?
The Intrinsic activity was 0.

What about the pKi [5] of the same molecule?
Its pKi is 5.98.

What about the pKi [6] of the same molecule?
The pKi was 5.10.

And the Intrinsic activity [11]?
Its Intrinsic activity is 0.29.

And the pEC50 [7]?
The pEC50 was 6.30.

And the pKi [8]?
The pKi was 6.23.

What about the Intrinsic activity [2] of the same molecule?
The Intrinsic activity was -0.21.

And the Kb [12]?
The Kb was greater than 10000 nM.

And the Kb [13]?
The Kb was 143 nM.

What about the pKi [10] of the same molecule?
Its pKi is 5.01.

How did the pEC50 [4] turn out when `N#C/N=C(/NCCSc1ccccc1)NC[C@H]1CC[C@H](c2c[nH]cn2)C1` [listing 1 of 2 here] was run?
The pEC50 was 6.78.

And the pKi [5]?
The pKi was 7.66.

And the pKi [6]?
Its pKi is 5.19.

And the pEC50 [7]?
The pEC50 was 7.60.

And the pKi [8]?
Its pKi is 5.67.

And the pEC50 [9]?
The pEC50 was 7.96.

What about the pKi [10] of the same molecule?
The pKi was 4.99.

How did the pEC50 [9] turn out when `N#C/N=C(/NCCSc1ccccc1)N[C@H]1CC[C@@H](c2c[nH]cn2)CC1` was run?
The pEC50 was 6.96.

What about the Kb [13] of the same molecule?
The Kb was 1900 nM.

Which results are given for `N#C/N=C(/NCCSc1ccccc1)NC[C@H]1CC[C@@H](c2c[nH]cn2)C1`?
Intrinsic activity [1]: 0; pKi [5]: 6.54; pKi [6]: 5.17; pKi [8]: 6.13; Intrinsic activity [2]: -0.34; Kb [12]: > 10000 nM; pEC50 [9]: 6.26; Kb [13]: 528 nM; pKi [10]: 5.13

Which results are given for `CN/C(=N\C#N)NC[C@@H]1CC[C@@H](c2c[nH]cn2)C1`?
pEC50 [4]: 5.44; Intrinsic activity [1]: 0; pKi [5]: 6.06; pKi [6]: < 5.00; Intrinsic activity [11]: 0.96; pKi [8]: 5.25; Intrinsic activity [2]: 0.29; Kb [12]: > 10000 nM; pEC50 [3]: 5.04; pEC50 [9]: 5.96; pKi [10]: < 5.00

With `N#C/N=C(/NCCSc1ccccc1)NC[C@@H]1CC[C@H](c2c[nH]cn2)C1` [listing 1 of 2 here] as the molecule, how does the pKi [5] read?
Its pKi is 6.74.

What about the pKi [6] of the same molecule?
Its pKi is 5.52.

What about the pKi [8] of the same molecule?
The pKi was 6.06.

What about the pEC50 [9] of the same molecule?
Its pEC50 is 6.53.

What about the pKi [10] of the same molecule?
The pKi was 5.14.

For `CN/C(=N\C#N)NC[C@H]1CC[C@@H](c2c[nH]cn2)C1`, which Intrinsic activity [1] is on record?
The Intrinsic activity was 0.

And the pKi [5]?
The pKi was 5.46.

And the pKi [6]?
Its pKi is less than 5.00.

What about the pKi [8] of the same molecule?
The pKi was 5.02.

And the Intrinsic activity [2]?
The Intrinsic activity was -0.14.

And the Kb [12]?
The Kb was greater than 10000 nM.

And the pEC50 [9]?
Its pEC50 is 5.57.

And the Kb [13]?
The Kb was 2810 nM.

What about the pKi [10] of the same molecule?
Its pKi is less than 5.00.

`CN/C(=N\C#N)NC[C@@H]1CC[C@H](c2c[nH]cn2)C1` [listing 1 of 2 here] was tested. Which pKi [5] did it give?
The pKi was 6.92.

And the pKi ([6]; sf9)?
The pKi was less than 5.00.

And the pKi [8]?
The pKi was 6.32.

And the pEC50 [3]?
The pEC50 was 6.67.

What about the pEC50 [9] of the same molecule?
Its pEC50 is 6.92.

What about the pKi [10] of the same molecule?
Its pKi is less than 5.00.

How did the Intrinsic activity [1] turn out when `CCC(=O)/N=C(\N)NCCCc1c[nH]cn1` was run?
Its Intrinsic activity is 0.8.

And the Intrinsic activity [2]?
The Intrinsic activity was 0.4.

With `CN/C(=N\C#N)NC[C@@H]1CC[C@H](c2c[nH]cn2)C1` [listing 2 of 2 here] as the molecule, how does the Intrinsic activity [1] read?
Its Intrinsic activity is 0.

And the Intrinsic activity [2]?
The Intrinsic activity was 0.61.

What about the Kb [12] of the same molecule?
The Kb was greater than 10000 nM.

Which results are given for `CN/C(=N\C#N)NC[C@H]1CC[C@H](c2c[nH]cn2)C1` [listing 2 of 2 here]?
Intrinsic activity [1]: 0; Intrinsic activity [11]: 0.96; Intrinsic activity [2]: 0.59; Kb [12]: > 10000 nM

With `CN1CCN(C(=O)c2cc3cc(Cl)ccc3[nH]2)CC1` as the molecule, how does the Intrinsic activity [2] read?
The Intrinsic activity was -0.56.

Which Intrinsic activity [1] does the source give for `N#C/N=C(/NCCSc1ccccc1)NC[C@@H]1CC[C@H](c2c[nH]cn2)C1` [listing 2 of 2 here] here?
The Intrinsic activity was 0.

And the Intrinsic activity [2]?
Its Intrinsic activity is -0.21.

What about the Kb [12] of the same molecule?
The Kb was greater than 10000 nM.

What about the Kb [13] of the same molecule?
The Kb was 718 nM.

`N#C/N=C(/NCCSc1ccccc1)NC[C@H]1CC[C@H](c2c[nH]cn2)C1` [listing 2 of 2 here] was tested. Which Intrinsic activity [1] did it give?
Its Intrinsic activity is 0.

And the Intrinsic activity [11]?
The Intrinsic activity was 0.67.

What about the Intrinsic activity [2] of the same molecule?
Its Intrinsic activity is 0.

What about the Kb [12] of the same molecule?
Its Kb is greater than 10000 nM.

And the Kb [13]?
Its Kb is 1150 nM.

`N#C/N=C(/NCCSc1ccccc1)N[C@H]1CC[C@H](c2c[nH]cn2)CC1` was tested. Which Kb [13] did it give?
Its Kb is 180 nM.

`S=C(NC1CCCCC1)N1CCC(c2cnc[nH]2)CC1` was tested. Which Intrinsic activity [2] did it give?
The Intrinsic activity was -0.59.

Reference: ChEMBL document CHEMBL3804756 (J Med Chem, 2016)
